Test: LD50 in mice, dosed intravenously
Settings: mouse, in vivo, iv

NC(=NCC(F)(F)F)Nc1ccnc(OCCCO)n1 [Example 1, 4-[2-(2,2,2-trifluoroethyl)guanidino]-2-(3-hydroxypropoxy)pyrimidine]
LD50: ~30 mg/kg
